Some test systems named below: HL-60; SF-268; OVCAR-3; SN12C; KM12; SK-MEL-28; SF-539; UACC-62; RPMI-8226; EKVX; MDA-MB-435; UACC-257; HT-29; SK-OV-3; OVCAR-5; HCT-116; COLO 205; MDA-MB-231; MOLT-4; NCI-H522.
Holding throughout (experiment): NCI anticancer screen, dose series, 48 h

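Where inhibition never reached the appropriate level, the endpoint shown equals the highest concentration tested. Otherwise, values were interpolated linearly from a five-concentration, 48-hour dose response in 96-well plates. GI50 = concentration required for 50% inhibition of growth.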 Calls of active or inactive are those of the source. Rule as the data show it: active = GI50 up to about 1.1 µM and inactive = higher.

`COC1/C=C\C=C(/C)C(=O)Nc2cc3nc4ccc(Br)cc4oc-3c(c2=O)CC(C)CC(OC)C(O)C(C)/C=C(\C)C1OC(N)=O` (stereo not given): the GI50 in the test with HL-60 was 0.0128 µM (active); in the test with SF-268, 0.499 µM (active); in the test with OVCAR-3, 0.082 µM (active); in the test on SN12C, 0.0481 µM (active); with KM12 it was 2.26 µM (inactive); in the test on SK-MEL-28, 0.0137 µM (active). The GI50 with SF-539 is 0.44 µM (active); in the test with UACC-62 it was 0.0391 µM (active); in the test on RPMI-8226, 0.119 µM (active); in the test with EKVX, 3.17 µM (inactive); in the test on MDA-MB-435, 0.00389 µM (active); in the test with UACC-257 it was 0.0556 µM (active). Besides, the GI50 in the test with HT-29 is < 0.0396 µM (active); in the test on SK-OV-3, 0.129 µM (active); in the test on OVCAR-5, 1.64 µM (inactive); with HCT-116, 0.0276 µM (active); in the test with COLO 205, 0.01 µM (active); in the test on MDA-MB-231, 0.00849 µM (active). The GI50 in the test with MOLT-4 is < 0.0103 µM (active); in the test on NCI-H522 it was 0.01 µM (active).
`CCc1ccc(/C=C/C(=O)C2CN(CC)CCC2(O)/C=C/c2ccc(CC)cc2)cc1` (stereo not given): the GI50 in the test with HL-60 was 2.77 µM (inactive); in the test on SF-268, 4.57 µM (inactive); with OVCAR-3, 1.71 µM (inactive); in the test with SN12C, 4.09 µM (inactive); in the test on KM12 it was 1.87 µM (inactive); with SK-MEL-28, 1.55 µM (inactive). In addition, the GI50 in the test with SF-539 is 2.31 µM (inactive); in the test with UACC-62, 4.92 µM (inactive); with RPMI-8226, 1.36 µM (inactive); with EKVX it was 4.75 µM (inactive); in the test on MDA-MB-435, 1.88 µM (inactive); in the test on UACC-257, 6.92 µM (inactive). The GI50 is 1.83 µM (inactive) in the test on HT-29; 12.3 µM (inactive) with SK-OV-3; 3.16 µM (inactive) in the test with OVCAR-5; 1.79 µM (inactive) with HCT-116; 2.45 µM (inactive) with COLO 205; 2.23 µM (inactive) in the test on MDA-MB-231. Also, the GI50 is 2.2 µM (inactive) with MOLT-4 and 2.59 µM (inactive) in the test on NCI-H522.
Turning to `O=C1CCN/C(=N\C(=O)C(F)(F)F)N1CCc1c[nH]c2ccccc12`, the GI50 in the test with HL-60, in the test with SF-268, with OVCAR-3, in the test with SN12C, in the test with KM12 and in the test with SK-MEL-28 was > 100 µM (inactive) in each case. Moreover, the GI50 in the test with SF-539, in the test with UACC-62, in the test with RPMI-8226, in the test on EKVX, in the test with MDA-MB-435 and in the test with UACC-257 was > 100 µM (inactive) each time. Also, the GI50 in the test with HT-29, in the test on SK-OV-3, in the test with OVCAR-5, with HCT-116, in the test with COLO 205 and with MDA-MB-231 was > 100 µM (inactive) in each case. Also, the GI50 in the test on MOLT-4 and with NCI-H522 was > 100 µM (inactive) in each case.
Regarding `C[C@H](CCC(=O)O)[C@H]1CC[C@H]2[C@@H]3CC[C@@H]4C[C@H](O)CC[C@]4(C)[C@H]3C[C@H](O)[C@]12C` [DEOXYCHOLIC ACID], the GI50 with HL-60 was 30.1 µM (inactive); in the test on SF-268, 40.1 µM (inactive); in the test with OVCAR-3, 20.4 µM (inactive); in the test on SN12C, 34 µM (inactive); in the test on KM12, 49.4 µM (inactive); with SK-MEL-28, 63.1 µM (inactive). In addition, the GI50 in the test with SF-539 was 48 µM (inactive); in the test with UACC-62 it was 37.5 µM (inactive); in the test with RPMI-8226, 25.8 µM (inactive); in the test on EKVX, 31.4 µM (inactive); in the test with MDA-MB-435, 42.2 µM (inactive); with UACC-257, 92.3 µM (inactive). In addition, the GI50 was 34.1 µM (inactive) in the test on HT-29; 26.7 µM (inactive) in the test with SK-OV-3; 44.7 µM (inactive) in the test with OVCAR-5; 32.9 µM (inactive) in the test on HCT-116; 27.9 µM (inactive) in the test with COLO 205; 41.5 µM (inactive) in the test with MDA-MB-231. Besides, the GI50 was 26.5 µM (inactive) with MOLT-4 and 28 µM (inactive) with NCI-H522.
As for `CCN(CC)C(=S)SC1CCOP(=O)(N(CCCl)CCCl)N1C` (stereo not given), the GI50 with HL-60 was 0.509 µM (active); in the test on SF-268 it was > 50.7 µM (inactive); in the test with OVCAR-3, > 100 µM (inactive); with SN12C it was 28.9 µM (inactive); with KM12, 7.19 µM (inactive); with SK-MEL-28, 26.9 µM (inactive). The GI50 was 33.4 µM (inactive) with SF-539; 1.83 µM (inactive) with UACC-62; 1.34 µM (inactive) in the test with RPMI-8226; 57.1 µM (inactive) with EKVX; > 100 µM (inactive) in the test with MDA-MB-435; > 40.9 µM (inactive) in the test on UACC-257. Besides, the GI50 with HT-29 was 1.99 µM (inactive); in the test on SK-OV-3, > 80.2 µM (inactive); in the test on OVCAR-5 it was 12.1 µM (inactive); with HCT-116, 0.412 µM (active); with COLO 205 it was 0.553 µM (active); in the test on MDA-MB-231, > 100 µM (inactive). The GI50 in the test on MOLT-4 was 0.439 µM (active); in the test on NCI-H522, 0.43 µM (active).
Take `O=C(O)c1cc(/N=N/c2ccc([As](=O)(O)O)cc2)ccc1O`: the GI50 in the test on HL-60, in the test with SF-268, in the test with OVCAR-3, in the test on SN12C, with KM12 and in the test with SK-MEL-28 was > 100 µM (inactive) each time. For the same molecule, the GI50 in the test on SF-539, in the test with UACC-62, with RPMI-8226, with EKVX, with MDA-MB-435 and in the test on UACC-257 was > 100 µM (inactive) each time. For the same molecule, the GI50 in the test on HT-29, with SK-OV-3, with OVCAR-5, in the test with HCT-116, with COLO 205 and in the test on MDA-MB-231 was > 100 µM (inactive) each time. Moreover, the GI50 in the test with MOLT-4 and in the test on NCI-H522 was > 100 µM (inactive) in each case.
In the case of `Cn1c2ccc3cc2c(=S)c2cc(ccc21)OCCOCCOCCOCCOCCO3`, the GI50 in the test with HL-60, with SF-268, with OVCAR-3, with SN12C, with KM12 and with SK-MEL-28 was > 10 µM (inactive) in each case. For the same molecule, the GI50 in the test with SF-539, in the test with UACC-62, in the test on RPMI-8226, in the test with EKVX, in the test with MDA-MB-435 and in the test on UACC-257 was > 10 µM (inactive) throughout. Moreover, the GI50 with HT-29, in the test on SK-OV-3, with OVCAR-5, with HCT-116, in the test on COLO 205 and with MDA-MB-231 was > 10 µM (inactive) each time. Moreover, the GI50 in the test with MOLT-4 and in the test with NCI-H522 was > 10 µM (inactive) throughout.
On to `CN1C(=O)C2(Cc3cn(C45CC67SSC(CO)(C(=O)N6C4Nc4ccccc45)N(C)C7=O)c4ccccc34)SSC1(CO)C(=O)N2C` (stereo not given), for which the GI50 was 0.013 µM (active) with HL-60; 0.0191 µM (active) in the test on SF-268; 0.0163 µM (active) with OVCAR-3; 0.0147 µM (active) in the test with SN12C; 0.139 µM (active) in the test on KM12; 0.084 µM (active) in the test with SK-MEL-28. The GI50 with SF-539 was 0.011 µM (active); with UACC-62 it was 0.0239 µM (active); in the test with RPMI-8226, 0.0139 µM (active); with EKVX, 0.0282 µM (active); in the test on MDA-MB-435, 0.0335 µM (active); in the test on UACC-257 it was 0.0188 µM (active). Further, the GI50 in the test with HT-29 was < 0.01 µM (active); with SK-OV-3 it was 0.262 µM (active); with OVCAR-5, 0.12 µM (active); in the test on HCT-116, 0.0113 µM (active); in the test on COLO 205 it was < 0.01 µM (active); in the test with MDA-MB-231 it was 0.0133 µM (active). Besides, the GI50 was 0.0405 µM (active) in the test with MOLT-4 and < 0.01 µM (active) with NCI-H522.
With `NC1=NN(c2ccccc2)C2(c3ccncc3C(=O)O)C1C(N)=NN2c1ccccc1` (stereo not given), the GI50 in the test with HL-60, with SF-268, with OVCAR-3, with SN12C, in the test on KM12 and in the test on SK-MEL-28 was > 100 µM (inactive) in each case. Further, the GI50 in the test on SF-539, in the test with UACC-62, with RPMI-8226, in the test with EKVX, in the test on MDA-MB-435 and with UACC-257 was > 100 µM (inactive) throughout. Also, the GI50 in the test with HT-29, in the test on SK-OV-3, with OVCAR-5, with HCT-116, in the test on COLO 205 and in the test on MDA-MB-231 was > 100 µM (inactive) throughout. The GI50 in the test with MOLT-4 and in the test with NCI-H522 was > 100 µM (inactive) each time.
`CC(C)=CC[C@]12CCN[C@H]1N(S(=O)(=O)c1ccccc1)c1ccccc12`: the GI50 is 17.8 µM (inactive) in the test with HL-60; 14.8 µM (inactive) in the test on SF-268; 16.9 µM (inactive) in the test on OVCAR-3; 13.6 µM (inactive) in the test on SN12C; 22 µM (inactive) in the test on KM12; 16.4 µM (inactive) with SK-MEL-28. Moreover, the GI50 in the test on SF-539 was 20.3 µM (inactive); with UACC-62 it was 13.2 µM (inactive); in the test on RPMI-8226 it was 18.3 µM (inactive); in the test on EKVX, 8.17 µM (inactive); with MDA-MB-435, 16.3 µM (inactive); with UACC-257 it was 17.6 µM (inactive). The GI50 was 18.5 µM (inactive) in the test with HT-29; 12.7 µM (inactive) with SK-OV-3; > 100 µM (inactive) in the test with OVCAR-5; 14.4 µM (inactive) in the test with HCT-116; 15.1 µM (inactive) with COLO 205; 19 µM (inactive) with MDA-MB-231. Besides, the GI50 was 21.1 µM (inactive) with MOLT-4 and 13.9 µM (inactive) with NCI-H522.

Values taken from ChEMBL document CHEMBL1201862, “PubChem BioAssay data set” (2004).
